Measurements: patent US8247431B2, “Heterocyclic hydrazide compound and pesticidal use of the same” (Sumitomo Chemical Company, Limited, priority 2007, dated 2012)

How the values were obtained:
Format in all cases: in vivo
[1] = system: Adoxophyes orana fasciata; assay: Test Example 4: spray on apple seedling, first-instar larvae of Adoxophyes orana fasciata; settings: 168 h, 500 ppm active ingredient, 20 ml spray on apple seedling, about 30 first-instar larvae, counted seven days after spraying, read-out: controlling value
Protocol: (§1) Then, it will be shown by Test Examples that the present compound is effective in controlling harmful arthropods. In the Test Example, controlling values were calculated by the following equation: Controlling value(%)={1−(Cb×Tai)/(Cai×Tb)}×100 wherein Cb: the number of worms in a non-treated section before treatment Cai: the number of worms in a non-treated section on observation Tb: the number of worms in a treated-section before treatment Tai: the number of worms in a treated-section on observation. Preparations of the test compounds obtained in Formulation Example 5 were diluted with water so that the active ingredient concentration became 500 ppm to prepare test spray solutions. At the same time, 20 ml of the test spray solution as described above was sprayed to an apple seedling (28 day-old seeding, tree height: about 15 cm) planted in a plastic cup. The apple seedling was air-dried to such an extent that the spray solution sprayed on the apple seedling was dried. About 30 first-instar larvae of Adoxophyes orana fasciata were released. Seven days after spraying, the number of worms surviving on the apple seedling was counted, and a controlling value was calculated by the above equation.

[2] = system: cotton aphids (Aphis gossypii); assay: Test Example 2: spray on cucumber infested with cotton aphids; settings: topical, 144 h, 500 ppm active ingredient, 20 ml/cup spray on cucumber, about 30 aphids, counted six days after spraying, read-out: controlling value
Protocol: as §1, with “time, cucumber was planted in a polyethylene cup, and was grown until the first true leaf was developed. About 30 cotton aphids were put on the cucumber. One day after,” for “time, 20 ml of”, “sprayed in” for “sprayed to”, “an amount of 20 ml/cup” for “an apple seedling (28 day-old seeding, tree height: about 15 cm) planted in a plastic cup. The apple seedling was air-dried to such an extent that the spray solution sprayed”, “the cucumber. Six” for “the apple seedling was dried. About 30 first-instar larvae of Adoxophyes orana fasciata were released. Seven”, “of cotton aphids (Aphis gossypii)” for “of worms surviving on the apple seedling”

[3] = system: diamondback moths (Plutella xylostella); assay: Test Example 1: spray on cabbage, third-instar larvae of diamondback moths; settings: 20 ml/cup spray on cabbage, 10 third-instar larvae, counted after 5 days; for pest or weed control at 500 ppm: Plutella xylostella, 120 h, 500 ppm active ingredient, read-out: controlling value
Protocol: Then, it will be shown by Test Examples that the present compound is effective in controlling harmful arthropods. In the Test Example, controlling values were calculated by the following equation: Controlling value(%)={1−(Cb×Tai)/(Cai×Tb)}×100 wherein Cb: the number of worms in a non-treated section before treatment Cai: the number of worms in a non-treated section on observation Tb: the number of worms in a treated-section before treatment Tai: the number of worms in a treated-section on observation. Preparations of the test compounds obtained in Formulation Example 5 were diluted with water so that the active ingredient concentration became 500 ppm, to prepare test spray solutions. At the same time, cabbage was planted in a polyethylene cup, and grown until the third true leaf or the fourth true leaf was developed. The test spray solution as described above was sprayed in an amount of 20 ml/cup on the cabbage. After the spray solution on the cabbage was dried, 10 third-instar larvae of diamondback moths (Plutella xylostella) were put on the cabbage. After 5 days, the number of diamondback moths was counted, and the controlling value was calculated by the above equation. Furthermore, preparations of the test compound (7) and a comparative compound of the formula [drawing 523] obtained in a formulation according to Formulation Example 5 were diluted with water so that the active ingredient concentration became 0.2 ppm, to prepare test spray solution. At the same time, cabbage was planted in a polyethylene cup, and grown until the third true leaf or the fourth true leaf was developed. The test spray solution as described above was sprayed in an amount of 20 ml/cup on the cabbage. After the spray solution on the cabbage was dried, 10 third-instar larvae of diamondback moths (Plutella xylostella) were put on the cabbage. After 5 days, the number of diamondback moths was counted, and the controlling value was calculated by the above equation.

[4] = system: Spodoptera litura; assay: Test Example 3: spray on cabbage, fourth-instar larvae of Spodoptera litura; settings: 120 h, 500 ppm active ingredient, 20 ml/cup spray on cabbage, 10 fourth-instar larvae, counted after 5 days, read-out: controlling value
Protocol: Then, it will be shown by Test Examples that the present compound is effective in controlling harmful arthropods. In the Test Example, controlling values were calculated by the following equation: Controlling value(%)={1−(Cb×Tai)/(Cai×Tb)}×100 wherein Cb: the number of worms in a non-treated section before treatment Cai: the number of worms in a non-treated section on observation Tb: the number of worms in a treated-section before treatment Tai: the number of worms in a treated-section on observation. Preparations of the test compounds obtained in Formulation Example 5 were diluted with water so that the active ingredient concentration became 500 ppm to prepare test spray solutions. At the same time, cabbage was planted in a polyethylene cup, and grown until the third true leaf or the fourth true leaf was developed. The test spray solution as described above was sprayed in an amount of 20 ml/cup on the cabbage. After the spray solution sprayed on the cabbage was dried, 10 fourth-instar larvae of Spodoptera litura were put on the cabbage. After 5 days, the number of Spodoptera litura surviving on the cabbage leaves was counted, and a controlling value was calculated by the above equation.

Row | Structure (SMILES) | pest or weed control at 500 ppm [1] [%] | pest or weed control at 500 ppm [2] [%] | pest or weed control at 500 ppm [3] [%] | control value ([3]; 0.2 ppm active ingredient) | pest or weed control at 500 ppm [4] [%]
1 | COC(=O)NNC(=O)c1cc(Cl)nc(Cl)c1NC(=O)c1cc(C(F)(F)F)nn1-c1ncccc1Cl [Compound 2, N′-(2,6-dichloro-3-{[2-(3-chloro-pyridin-2-yl)-5-trifluoromethyl-2H-pyrazole-3-carbonyl]-amino}-pyridine-4-carbonyl)-hydrazinecarboxylic acid methyl ester] | ≥ 90 | ≥ 90 | ≥ 90 | – | –
2 | Cc1cc(Cl)nc(C(=O)NN(C)C)c1NC(=O)c1cc(Br)nn1-c1ncccc1Cl [reference compound] | – | – | – | less than 80% | –
3 | CCN(NC(=O)OC)C(=O)c1nc(Br)cc(Br)c1NC(=O)c1cc(Br)nn1-c1ncccc1Cl [Compound 16, N′-(4,6-dibromo-3-{[5-bromo-2-(3-chloro-pyridin-2-yl)-2H-pyrazole-3-carbonyl]-amino}-pyridine-2-carbonyl)-N′-ethyl-hydrazinecarboxylic acid methyl ester] | – | ≥ 90 | ≥ 90 | – | ≥ 80
4 | CCN(NC(=O)OC)C(=O)c1nc(Cl)cc(C)c1NC(=O)c1cc(Br)nn1-c1ncccc1Cl [Compound 11, N′-(3-{[5-bromo-2-(3-chloro-pyridin-2-yl)-2H-pyrazole-3-carbonyl]-amino}-6-chloro-4-methyl-pyridine-2-carbonyl)-N′-ethyl-hydrazine carboxylic acid methyl ester] | – | ≥ 90 | ≥ 90 | – | ≥ 80
5 | COC(=O)NNC(=O)c1nc(Cl)cc(Cl)c1NC(=O)c1cc(Br)nn1-c1ncccc1Cl [Compound 14, N′-(3-{[5-bromo-2-(3-chloro-pyridin-2-yl)-2H-pyrazole-3-carbonyl]-amino}-4,6-dichloro-pyridine-2-carbonyl)-hydrazinecarboxylic acid methyl ester] | ≥ 90 | ≥ 90 | ≥ 90 | – | ≥ 80
6 | COC(=O)NNC(=O)c1cc(Cl)nc(Cl)c1NC(=O)c1cc(Br)nn1-c1ncccc1Cl [Compound 1, N′-(3-{[5-bromo-2-(3-chloro-pyridin-2-yl)-2H-pyrazole-3-carbonyl]-amino}-2,6-dichloro-pyridine-4-carbonyl)-hydrazinecarboxylic acid methyl ester] | ≥ 90 | ≥ 90 | ≥ 90 | – | ≥ 80
7 | COC(=O)NNC(=O)c1cc(Cl)nc(Br)c1NC(=O)c1cc(Br)nn1-c1ncccc1Cl [Compound 4, N′-(2-bromo-3-{[5-bromo-2-(3-chloro-pyridin-2-yl)-2H-pyrazole-3-carbonyl]-amino}-6-chloro-pyridine-4-carbonyl)-hydrazinecarboxylic acid methyl ester] | ≥ 90 | ≥ 90 | ≥ 90 | – | ≥ 80
8 | COC(=O)NNC(=O)c1nc(Cl)cc(Br)c1NC(=O)c1cc(Br)nn1-c1ncccc1Cl [Compound 15, N′-(4-bromo-3-{[5-bromo-2-(3-chloro-pyridin-2-yl)-2H-pyrazole-3-carbonyl]-amino}-6-chloro-pyridine-2-carbonyl)-hydrazine carboxylic acid methyl ester] | ≥ 90 | ≥ 90 | ≥ 90 | – | ≥ 80
9 | COC(=O)NNC(=O)c1cc(Br)nc(Br)c1NC(=O)c1cc(Br)nn1-c1ncccc1Cl [Compound 5, N′-(2,6-dibromo-3-{[5-bromo-2-(3-chloro-pyridin-2-yl)-2H-pyrazole-3-carbonyl]-amino}-pyridine-4-carbonyl)-hydrazinecarboxylic acid methyl ester] | ≥ 90 | ≥ 90 | ≥ 90 | – | ≥ 80
10 | COC(=O)NNC(=O)c1cccnc1NC(=O)c1cc(C(F)(F)F)nn1-c1ncccc1Cl [Compound 17, N′-(2-{[2-(3-chloro-pyridin-2-yl)-5-trifluoromethyl-2H-pyrazole-3-carbonyl]-amino}-pyridine-3-carbonyl)-hydrazinecarboxylic acid methyl ester] | – | – | ≥ 90 | – | ≥ 80
11 | COC(=O)NNC(=O)c1cnn(C)c1NC(=O)c1cc(Br)nn1-c1ncccc1Cl [Compound 19, N′-(5-{[5-bromo-2-(3-chloro-pyridin-2-yl)-2H-pyrazole-3-carbonyl]-amino}-1-methyl-1H-pyrazole-4-carbonyl)-hydrazinecarboxylic acid methyl ester] | ≥ 90 | ≥ 90 | ≥ 90 | – | –
12 | COC(=O)N(C)N(C)C(=O)c1nc(Cl)cc(C)c1NC(=O)c1cc(Br)nn1-c1ncccc1Cl [Compound 9, N′-(3-{[5-bromo-2-(3-chloro-pyridin-2-yl)-2H-pyrazole-3-carbonyl]-amino}-6-chloro-4-methyl-pyridine-2-carbonyl)-N,N′-dimethyl-hydrazinecarboxylic acid methyl ester] | – | ≥ 90 | ≥ 90 | – | ≥ 80
13 | COC(=O)NNC(=O)c1cc(Cl)nc(C)c1NC(=O)c1cc(Br)nn1-c1ncccc1Cl [Compound 3, N′-(3-{[5-bromo-2-(3-chloro-pyridin-2-yl)-2H-pyrazole-3-carbonyl]-amino}-6-chloro-2-methyl-pyridine-4-carbonyl)-hydrazinecarboxylic acid methyl ester] | ≥ 90 | ≥ 90 | ≥ 90 | – | ≥ 80
14 | COC(=O)NNC(=O)c1scc(C)c1NC(=O)c1cc(Br)nn1-c1ncccc1Cl [Compound 18, N′-(3-{[5-bromo-2-(3-chloro-pyridin-2-yl)-2H-pyrazole-3-carbonyl]-amino}-4-methyl-thiophene-2-carbonyl)-hydrazinecarboxylic acid methyl ester] | – | ≥ 90 | – | – | –
15 | CCN(NC(=O)c1nc(Cl)cc(C)c1NC(=O)c1cc(Br)nn1-c1ncccc1Cl)C(=O)OC [Compound 10, N′-(3-{[5-bromo-2-(3-chloro-pyridin-2-yl)-2H-pyrazole-3-carbonyl]-amino}-6-chloro-4-methyl-pyridine-2-carbonyl)-N-ethyl-hydrazinecarboxylic acid methyl ester] | – | ≥ 90 | ≥ 90 | – | ≥ 80
